In PubChem BioAssay AID1417 (Emory University Molecular Libraries Screening Center, 2008) one finds IC50 data, which are given here for 92 molecules.

Each structure is given as a SMILES string.

In the assay the target is Induced myeloid leukemia cell differentiation protein Mcl-1 (Homo sapiens) (UniProt Q07820). Kind of assay: Mcl-1/Noxa binding inhibitor potency, dose response, biochemical, TR-FRET (AID 1417). Conditions: Mcl-1/Noxa peptide interaction, cell-free TR-FRET (terbium/rhodamine), 2 h; measured here: absolute IC50. (In general: In TR-FRET formats the signal depends on donor and acceptor labels being close together.)
Chain of Induced myeloid leukemia cell differentiation protein Mcl-1 (Homo sapiens) (Q07820 whole entry, looked up): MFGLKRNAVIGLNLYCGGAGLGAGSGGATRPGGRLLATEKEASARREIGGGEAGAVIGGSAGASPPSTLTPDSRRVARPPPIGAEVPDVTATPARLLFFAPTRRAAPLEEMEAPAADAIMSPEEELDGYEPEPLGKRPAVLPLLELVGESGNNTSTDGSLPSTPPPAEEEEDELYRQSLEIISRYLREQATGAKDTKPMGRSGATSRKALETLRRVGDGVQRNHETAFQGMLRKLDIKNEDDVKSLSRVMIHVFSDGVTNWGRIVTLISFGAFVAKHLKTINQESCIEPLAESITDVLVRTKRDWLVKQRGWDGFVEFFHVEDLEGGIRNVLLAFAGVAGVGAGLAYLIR
For `O=C(O)c1cccc2c1NC(c1cccc([N+](=O)[O-])c1)C1CC(Sc3ccccc3[N+](=O)[O-])C(Cl)C21` (configuration not stated), the half-inhibitory concentration (IC50) (as a rule, the concentration at which inhibition is half-maximal) stood at 2.25 µM.

Regarding `CN(C)c1ccc(/C=c2\sc3nc(-c4ccccc4)nn3c2=O)cc1`, the 50% inhibitory concentration (IC50) was 8.8 µM.

`FC(F)(F)C1=CC(c2ccccc2)=NCCN1` had an IC50 above 54 µM.

Regarding `CCOC(=O)c1cc(-c2ccc(/C=C3/C(=O)NC(=O)C(C#N)=C3C)o2)ccc1Cl`, the IC50 was below 0.4 µM.

Molecule `CCN(c1ccc(NC(=O)COC(=O)c2cccs2)cc1)C(C)C` registered a 50% inhibitory concentration (IC50) above 54 µM.

Molecule `S=c1[nH]nc(-c2cc(-c3ccccc3)n[nH]2)n1/N=C/c1c2ccccc2cc2ccccc12` displayed an IC50 above 54 µM.

In the case of `CC1=C(C#N)C(=O)N(C2CCS(=O)(=O)C2)C(=O)/C1=C\c1ccc(C)o1` (configuration not stated), the concentration for half-maximal inhibition (IC50) was below 0.4 µM.

Take `CCC1CSC(Nc2ccc(C(=O)/C=C/c3cccc(C)c3)cc2)=N1` (configuration not stated): the IC50 was below 0.4 µM.

Molecule `COc1cccc2c(C)c(C(=O)O)[nH]c12` yielded an IC50 of 2 µM.

With `CCN(CC)S(=O)(=O)c1cc(NC(=O)Cn2ncc(Cl)c(Cl)c2=O)ccc1C`, the IC50 is 3.26 µM.

`COc1ccc(NC(=S)NNc2ccc(S(=O)(=O)Nc3ccccc3C(=O)O)cc2[N+](=O)[O-])cc1` showed an IC50 above 54 µM.

On to `COc1cc(/C=N/NC(=O)c2ccc(CN3C(=O)c4cccc5cccc3c45)cc2)cc(OC)c1O`, for which the IC50 was 3.43 µM.

On to `Oc1ccc(/C=N/n2cc(-c3ccccc3)[nH]c2=S)cc1`, for which the concentration for half-maximal inhibition (IC50) is below 0.4 µM.

Molecule `CC(C)(C)C1=CC=C(C(C)(C)C)C(=O)C1=O` yielded an IC50 below 0.4 µM.

Molecule `Cc1ccc2[nH]c(O)c(N=Nc3nc4ccccc4s3)c2c1` yielded a concentration for half-maximal inhibition (IC50) of 2.48 µM.

For the molecule `c1coc(-c2nc3ccccc3nc2-c2ccco2)c1`, the IC50 was 5.17 µM.

Regarding `O=C(ONc1ccc(N=NC(=O)c2ccccc2O)cc1)c1ccccc1`, the IC50 was found to be 13 µM.

The molecule `Cn1c(=O)c(C(=O)COC(=O)c2cc(-c3ccco3)nc3ccccc23)c(N)n(CC2CC2)c1=O` had an IC50 of 0.449 µM.

Regarding `O=C(CNC(=O)C(c1ccccc1)c1ccccc1)N/N=C/c1cccnc1`, the 50% inhibitory concentration (IC50) was above 54 µM.

`CC(C(=O)Nc1cc([N+](=O)[O-])ccc1Cl)N1CCN(c2ccc(O)cc2)CC1` (configuration not stated) returned a 50% inhibitory concentration (IC50) above 54 µM.

On to `Cc1ccc(N2NC(=O)/C(=C\c3cc4c(cc3[N+](=O)[O-])OCO4)C2=O)cc1C`, for which the IC50 is 4.92 µM.

For `O=C(N/N=C/c1ccc(O)cc1O)c1ccc(CN2C(=O)c3cccc4cccc2c34)cc1`, the half-maximal inhibitory concentration (IC50) came out at 1.29 µM.

Consider `Cc1cccc(NC(=O)CSc2nnc(-c3ccco3)c(-c3ccco3)n2)c1`, for which the IC50 stood at 6.58 µM.

Molecule `O=C(c1ccc2nc(-c3ccco3)c(-c3ccco3)nc2c1)N1CCN(c2ncccn2)CC1` displayed an IC50 of 12.6 µM.

Turning to `Cc1cc(C)c2nc(-c3ccccn3)cc(C(=O)Nc3ccc(S(=O)(=O)Nc4onc(C)c4C)cc3)c2c1`, the IC50 was determined as 2.82 µM.

Molecule `O=C(N/N=C/c1ccc(-c2ccc(S(=O)(=O)Nc3ncccn3)cc2)o1)c1cc2ccccc2cc1O` showed an IC50 of 1.43 µM.

Take `O=C1NC(=S)S/C1=C\C=C\c1ccc([N+](=O)[O-])o1`: the 50% inhibitory concentration (IC50) is below 0.4 µM.

For the molecule `O=C(O)c1ccc(N/N=C/c2ccc(OC(=O)c3cccc(Cl)c3)cc2)cc1`, the IC50 was 7.31 µM.

Molecule `Cc1ccc(-n2nc3cc(C)c(N)cc3n2)cc1` yielded a concentration for half-maximal inhibition (IC50) below 0.4 µM.

In turn, `CN1CCc2cccc3c2[C@@H]1Cc1ccc(O)c(O)c1-3` yielded an IC50 of 0.827 µM.

Consider `CC(=O)Nc1sc(N/N=C/c2ccc(O)cc2)nc1-c1ccc(C)cc1`, for which the IC50 is 3.72 µM.

Take `COc1cc(SC)ccc1C(=O)N1CCN(c2ccccc2)CC1`: the IC50 was above 54 µM.

With `CC(C)(O)C#Cc1ccc(CN2CCN(C3CCCCC3)C(CCO)C2)cc1` (configuration not stated), the 50% inhibitory concentration (IC50) was above 54 µM.

The molecule `COc1ccccc1NC1=C(NC(C)=O)C(=O)c2ccccc2C1=O` had an IC50 of 2.48 µM.

As to `Cc1ccc(-c2cc(C(=O)N3CCN(c4ncccn4)CC3)c3cc(Br)ccc3n2)o1`, the IC50 amounted to 3.78 µM.

In the case of `CC(=O)N1CCc2cc(S(=O)(=O)NC(Cc3ccccc3)C(=O)NC3CCCCCC3)ccc21` (configuration not stated), the IC50 is above 54 µM.

In turn, `Oc1ccc(N=Nc2cccc(Cl)c2)cc1C=Nc1ccc(N2CCOCC2)cc1` had an IC50 above 54 µM.

In the case of `COc1ccc2nc(NC(=O)Nc3cccc4ccccc34)sc2c1`, the IC50 was above 54 µM.

As for `CCCCCc1nc2c(=O)[nH]c3ccccc3c2o1`, the concentration for half-maximal inhibition (IC50) is above 54 µM.

On to `CCOC(=O)c1cc(-c2ccco2)nc2c1c(C)nn2-c1cccc(Cl)c1`, for which the IC50 turned out to be 2.36 µM.

For `Cc1nn(Cc2ccc(F)cc2)c2sc(C(=O)Nc3ccc(N4CCOCC4)cc3N3CCOCC3)cc12`, the 50% inhibitory concentration (IC50) is above 54 µM.

`Cc1ccc2c(c1C)NC(C(=O)O)C1CC=CC21` (configuration not stated): the IC50 turned out to be 1.07 µM.

Regarding `Cc1ccc(CNC(=O)c2ccc3c(=O)[nH]c4c(C(=O)NCC5CCCO5)sc(=S)n4c3c2)cc1` (configuration not stated), the IC50 was 11.1 µM.

`S=C(NNc1ccnc2cc(Cl)ccc12)Nc1ccc(Cl)cc1Cl` gave a concentration for half-maximal inhibition (IC50) of 6.37 µM.

Turning to `O=c1c(-c2c(O)cc(O)c3c(=O)cc(-c4ccc(O)cc4)oc23)c(-c2ccc(O)cc2)oc2cc(O)cc(O)c12`, the 50% inhibitory concentration (IC50) is above 54 µM.

For `COc1ccc(C(c2c(O)ccc3ccccc23)N2CCOCC2)c(OC)c1` (configuration not stated), the IC50 is below 0.4 µM.

In turn, `O=C(O)c1ccc(NS(=O)(=O)c2ccc3c(c2)C2C=CCC2C(c2ccccc2F)N3)cc1` (configuration not stated) showed an IC50 of 1.27 µM.

Consider `CSc1nc(N(C)CCO)c2sc3nc(-c4ccco4)c4c(c3c2n1)CCC4`, for which the 50% inhibitory concentration (IC50) is below 0.4 µM.

Turning to `Cc1ccc2nc(/C(C#N)=C/c3ccc(-c4cccc([N+](=O)[O-])c4)o3)[nH]c2c1`, the IC50 worked out at 1.68 µM.

Take `CC1CCN(c2ccc(NC(=O)Cc3ccccc3)cc2)CC1`: the IC50 was above 54 µM.

On to `O=C(O)CCN1C(=O)/C(=C\c2ccc(-c3nc4ccccc4s3)o2)SC1=S`, for which the IC50 was below 0.4 µM.

Molecule `Cc1cc(C)c(S(=O)(=O)/N=C2/C=C(SCC(=O)O)C(=O)c3ccccc32)cc1C` had an IC50 below 0.4 µM.

The molecule `NS(=O)(=O)c1ccc(NC(=S)NC(=O)/C=C/c2ccco2)cc1` had an IC50 of 6.75 µM.

Take `COc1cc(-c2ccc(Nc3ccccc3C(=O)O)c(OC)c2)ccc1Nc1ccccc1C(=O)O`: the IC50 was below 0.4 µM.

Take `Fc1cccc(NC(=S)NNc2c3ccccc3nc3ccccc23)c1`: the 50% inhibitory concentration (IC50) worked out at 3.31 µM.

For `O=C(O)c1ccc(NC2=C/C(=N/S(=O)(=O)c3ccccc3)c3ccccc3C2=O)cc1`, the IC50 was below 0.4 µM.

As to `NC(=S)n1[nH]c(-c2ccc([N+](=O)[O-])cc2)c(N=Nc2ccc(Cl)cc2)c1=O`, the IC50 was below 0.4 µM.

The molecule `NC(=S)n1[nH]c(-c2ccc([N+](=O)[O-])cc2)c(N=Nc2cccc(Cl)c2)c1=O` had a concentration for half-maximal inhibition (IC50) of 1.48 µM.

Molecule `CN=c1scc(C)n1/N=C/c1ccc(O)c(O)c1O` gave an IC50 of 1.76 µM.

`CCCSC1=N/C(=C\C=C\c2ccco2)C(=O)S1` showed an IC50 of 3.1 µM.

As to `O=c1cc2c(=O)oc3cc(O)c(O)oc3c2c(O)c1O`, the IC50 is below 0.4 µM.

For the molecule `CC(=O)c1cc(O)c2ccccc2c1O`, the IC50 is below 0.4 µM.

The molecule `Cc1cc(N(CCO)CCO)ccc1C(c1ccc(N(CCO)CCO)cc1C)c1ccccc1Cl` displayed an IC50 of 1.13 µM.

As for `COc1ccc(N=C2NC(=O)/C(=C\C=C\c3ccco3)S2)cc1`, the IC50 is 1.48 µM.

Turning to `COC1=C/C(=C/c2c(N)n3nc(-c4ccc(C)cc4)sc3nc2=O)C=CC1=O`, the half-inhibitory concentration (IC50) was 2.82 µM.

In turn, `O=[N+]([O-])c1cc(CN2CCOCC2)c2cccnc2c1O` yielded an IC50 below 0.4 µM.

`O=C1NC(=O)C(=Cc2ccc(-c3cc(Cl)ccc3[N+](=O)[O-])o2)C(=O)N1` returned a half-maximal inhibitory concentration (IC50) of 3.25 µM.

`Cc1cccc(N=C2NC(=O)/C(=C/C=C/c3ccco3)S2)c1C` returned an IC50 of 4.15 µM.

`COc1ccccc1/C=c1\sc2nc(-c3ccco3)nn2c1=O` showed an IC50 of 8.18 µM.

For the molecule `O=C(O)CSc1cc(C(=O)c2ccccc2O)cn2c(=O)c3c4c(sc3nc12)CCCC4`, the half-maximal inhibitory concentration (IC50) came out at 3.38 µM.

`O=C(O)COc1ccc(/C=N/NC(=O)c2ccc(-c3csc(Nc4ccc(Cl)cc4)n3)cc2)cc1` had an IC50 of 0.784 µM.

`O=c1oc2c(O)c(O)cc3c(=O)oc4c(O)c(O)cc1c4c23` registered a half-maximal inhibitory concentration (IC50) below 0.4 µM.

On to `CC(=O)Oc1ccc(NC(=O)CSc2ccccc2)cc1`, for which the concentration for half-maximal inhibition (IC50) was above 54 µM.

Take `CC(=O)Nc1ccc(-c2csc(NC(=O)C3CC(=O)N(c4ccc5c(c4)OCCO5)C3)n2)cc1` (configuration not stated): the half-maximal inhibitory concentration (IC50) turned out to be 3.25 µM.

For the molecule `O=C1CCCCC1C(=O)c1ccccc1` (configuration not stated), the IC50 is above 54 µM.

`O=C1/C(=C/c2ccco2)SC(=S)N1c1cccnc1` returned a half-maximal inhibitory concentration (IC50) above 54 µM.

The molecule `CCN(c1ccc(NC(=O)c2ccc(Cl)nc2)cc1)C(C)C` showed an IC50 above 54 µM.

Molecule `Cc1ccc(NC2=C(NC(=O)c3ccccc3)C(=O)c3ccccc3C2=O)cc1Cl` displayed a half-maximal inhibitory concentration (IC50) of 3.9 µM.

With `O=c1c(Cl)c(N/N=C/c2ccc(Cl)cc2)cnn1-c1ccccc1`, the IC50 is 4.42 µM.

Consider `Cc1ccc(NC(=O)CN2C(=O)N/C(=C/c3cccn3-c3ccc(C(=O)O)cc3)C2=O)cc1`, for which the IC50 was above 54 µM.

`O=C(CNc1ccc2ccccc2c1)N/N=C/C=C/c1cccc([N+](=O)[O-])c1` gave an IC50 of 7.27 µM.

Molecule `Cc1ccc(NC(=O)CN2C(=O)/C(=C3\SC(=S)N(C4CCS(=O)(=O)C4)C3=O)c3ccccc32)cc1` (configuration not stated) displayed an IC50 below 0.4 µM.

`O=C(O)COc1ccccc1C(Nc1ccccn1)c1cc(Cl)c2cccnc2c1O` (configuration not stated) returned a 50% inhibitory concentration (IC50) below 0.4 µM.

For the molecule `COc1ccc(CN2C(=O)/C(=C/c3ccc(-c4ccc(Cl)c(C(=O)O)c4)o3)SC2=S)cc1`, the IC50 turned out to be 1.56 µM.

`CN(C)c1ccc(NC(=O)c2cccc(N3C(=O)C4C5C=CC(C5)C4C3=O)c2)cc1` (configuration not stated) yielded an IC50 above 54 µM.

Turning to `O=C(CSc1ccsc1[N+](=O)[O-])Nc1cccc(F)c1`, the 50% inhibitory concentration (IC50) was 2.61 µM.

Molecule `COc1ccc(N2CCN(C(=O)c3ccc(CSc4ccccc4)cc3)CC2)cc1` displayed a half-maximal inhibitory concentration (IC50) above 54 µM.

With `CN=c1scc(-c2cccs2)n1/N=C/c1ccc(O)c(O)c1O`, the IC50 is below 0.4 µM.

Molecule `O=C(Nc1ccc(S(=O)(=O)Nc2nccs2)cc1)/C(=C/c1ccccc1Cl)NC(=O)c1ccccc1` came in with a 50% inhibitory concentration (IC50) of 2.93 µM.

`Cc1cc(NS(=O)(=O)c2ccc(Nc3nc(-c4sc(NC(=O)c5ccccc5)nc4C)cs3)cc2)no1` registered an IC50 of 1.77 µM.

With `Clc1cccc(/C=N/Nc2nc(Cl)nc3ccccc23)c1`, the IC50 was above 54 µM.

Consider `O=C(CCN1C(=O)S/C(=C\c2ccccc2)C1=O)Nc1ccc(S(=O)(=O)Nc2nccs2)cc1`, for which the IC50 is 7.65 µM.
